The values below come from publication PMC9898036, “VIP152 is a selective CDK9 inhibitor with pre-clinical in vitro and in vivo efficacy in chronic lymphocytic leukemia” (Leukemia, 2022).

For one data set, the target named is AKT2 (Homo sapiens, UniProt P31751). The experiment in a line: KINOMEscan: AKT2. Type of data set: binding. Particulars: 1000 nM, read-out: Percent Control.
The target in a further data set is INSR (Homo sapiens, UniProt P06213). The experiment in a line: KINOMEscan: INSR. The data set is classed as binding. The note with it: 1000 nM, read-out: Percent Control.
Data set [1] concerns the target EGFR(L747-S752del, P753S) (Homo sapiens, UniProt P00533, DEL747-752/P753S). The experiment in a line: KINOMEscan: EGFR(L747-S752del, P753S). Type of data set: binding. Particulars: 1000 nM, read-out: Percent Control.
Details of data set [2]: method as in PMID 35046056. Particulars: human, cited from earlier work.
Another data set deals with BRAF(V600E) (Homo sapiens, UniProt P15056, V600E). In words: KINOMEscan: BRAF(V600E). The data set is classed as binding. Particulars: 1000 nM, read-out: Percent Control.
In the next data set the target is ICK (Homo sapiens, UniProt Q9UPZ9). The experiment in a line: KINOMEscan: ICK. Type of data set: binding. The note with it: 1000 nM, read-out: Percent Control.
Chain of ICK (Q9UPZ9 whole entry): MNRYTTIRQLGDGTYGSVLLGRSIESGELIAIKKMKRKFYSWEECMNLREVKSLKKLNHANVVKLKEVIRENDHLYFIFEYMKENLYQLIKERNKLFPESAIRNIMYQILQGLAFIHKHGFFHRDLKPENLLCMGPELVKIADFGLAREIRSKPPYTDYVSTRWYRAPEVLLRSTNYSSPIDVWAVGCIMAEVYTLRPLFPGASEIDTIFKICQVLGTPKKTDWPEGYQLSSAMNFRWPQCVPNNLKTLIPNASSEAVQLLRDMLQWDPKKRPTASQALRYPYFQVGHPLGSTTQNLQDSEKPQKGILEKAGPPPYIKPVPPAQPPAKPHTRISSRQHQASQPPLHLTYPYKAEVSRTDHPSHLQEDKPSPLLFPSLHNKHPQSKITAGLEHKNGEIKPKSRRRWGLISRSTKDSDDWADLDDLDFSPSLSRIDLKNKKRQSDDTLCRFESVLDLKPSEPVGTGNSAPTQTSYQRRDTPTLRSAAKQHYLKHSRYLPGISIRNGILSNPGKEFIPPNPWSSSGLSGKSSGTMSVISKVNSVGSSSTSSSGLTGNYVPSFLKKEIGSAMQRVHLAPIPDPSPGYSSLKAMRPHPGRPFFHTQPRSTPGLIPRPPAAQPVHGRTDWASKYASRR
In the next data set the target is TRKC (Homo sapiens, UniProt Q16288). The experiment in a line: KINOMEscan: TRKC. The data set is classed as binding. The note with it: 100 nM, read-out: Percent Control.
Chain of TRKC (Q16288 32-839): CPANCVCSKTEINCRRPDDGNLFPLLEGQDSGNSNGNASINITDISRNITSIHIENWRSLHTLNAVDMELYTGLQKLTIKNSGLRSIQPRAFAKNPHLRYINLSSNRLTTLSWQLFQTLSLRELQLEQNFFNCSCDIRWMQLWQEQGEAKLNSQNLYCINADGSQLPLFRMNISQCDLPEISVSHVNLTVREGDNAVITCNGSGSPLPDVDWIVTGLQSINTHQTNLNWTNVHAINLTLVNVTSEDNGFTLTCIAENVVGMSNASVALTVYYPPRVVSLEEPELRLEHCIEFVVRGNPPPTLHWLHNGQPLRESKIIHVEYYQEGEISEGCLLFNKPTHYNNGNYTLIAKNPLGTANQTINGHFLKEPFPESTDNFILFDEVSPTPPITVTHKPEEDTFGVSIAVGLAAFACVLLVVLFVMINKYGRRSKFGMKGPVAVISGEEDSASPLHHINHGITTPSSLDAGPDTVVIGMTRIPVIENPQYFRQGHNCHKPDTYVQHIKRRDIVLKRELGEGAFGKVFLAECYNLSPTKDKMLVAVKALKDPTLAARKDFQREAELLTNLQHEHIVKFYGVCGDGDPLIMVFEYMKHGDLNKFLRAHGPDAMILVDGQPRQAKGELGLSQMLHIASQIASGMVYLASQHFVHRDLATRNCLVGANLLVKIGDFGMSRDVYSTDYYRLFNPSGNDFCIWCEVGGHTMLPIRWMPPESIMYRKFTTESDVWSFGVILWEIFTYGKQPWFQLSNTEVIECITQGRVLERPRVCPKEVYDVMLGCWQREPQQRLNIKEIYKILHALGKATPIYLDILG
Data set [3] has as its target RSK1(Kin.Dom.2-C-terminal) (Homo sapiens, UniProt Q15418). The experiment in a line: KINOMEscan: RSK1(Kin.Dom.2-C-terminal). The data set is classed as binding. Particulars: 100 nM, read-out: Percent Control.
The next data set has as its target CSNK1G1 (Homo sapiens, UniProt Q9HCP0). The experiment in a line: KINOMEscan: CSNK1G1. The note with it: 1000 nM, read-out: Percent Control. Type of data set: binding.
The next data set has as its target TLK2 (Homo sapiens, UniProt Q86UE8). The experiment in a line: KINOMEscan: TLK2. The data set is classed as binding. Particulars: 100 nM, read-out: Percent Control.
The target of the next data set is MAP4K5 (Homo sapiens, UniProt Q9Y4K4). In words: KINOMEscan: MAP4K5. Type of data set: binding. The note with it: 1000 nM, read-out: Percent Control.
Chain of MAP4K5 (Q9Y4K4 whole entry): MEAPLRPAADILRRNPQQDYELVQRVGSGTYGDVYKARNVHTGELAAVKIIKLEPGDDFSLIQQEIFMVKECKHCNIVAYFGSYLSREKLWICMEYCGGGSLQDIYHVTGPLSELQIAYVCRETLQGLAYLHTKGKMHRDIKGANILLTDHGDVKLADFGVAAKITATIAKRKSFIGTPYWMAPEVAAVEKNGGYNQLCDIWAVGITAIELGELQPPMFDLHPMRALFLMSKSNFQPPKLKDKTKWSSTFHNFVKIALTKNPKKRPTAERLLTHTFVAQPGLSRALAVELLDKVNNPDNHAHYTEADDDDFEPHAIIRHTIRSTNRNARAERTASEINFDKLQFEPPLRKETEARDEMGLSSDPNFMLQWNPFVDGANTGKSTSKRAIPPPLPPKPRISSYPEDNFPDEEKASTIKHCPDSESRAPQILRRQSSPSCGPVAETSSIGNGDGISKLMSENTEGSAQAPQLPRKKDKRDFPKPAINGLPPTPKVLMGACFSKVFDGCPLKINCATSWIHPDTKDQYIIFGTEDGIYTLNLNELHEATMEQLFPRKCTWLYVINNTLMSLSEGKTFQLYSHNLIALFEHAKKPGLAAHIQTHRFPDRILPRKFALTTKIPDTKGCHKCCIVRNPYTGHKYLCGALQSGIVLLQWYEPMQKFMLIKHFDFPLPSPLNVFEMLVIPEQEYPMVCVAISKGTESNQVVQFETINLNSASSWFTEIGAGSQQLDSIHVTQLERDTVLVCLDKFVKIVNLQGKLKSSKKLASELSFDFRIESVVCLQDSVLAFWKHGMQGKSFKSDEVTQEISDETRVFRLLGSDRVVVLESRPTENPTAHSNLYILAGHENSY
A further data set concerns the target JNK1 (Homo sapiens, UniProt P45983). The experiment in a line: KINOMEscan: JNK1. Particulars: 1000 nM, read-out: Percent Control. Type of data set: binding.
Another data set deals with YSK4 (Homo sapiens, UniProt Q56UN5). The experiment in a line: KINOMEscan: YSK4. Type of data set: binding. The note with it: 100 nM, read-out: Percent Control.
Data set [4] concerns C57BL/6 J mice engrafted with Eµ-MTCP1 splenocytes. The experiment in a line: Eµ-MTCP1 adoptive transfer murine CLL model. Type of data set: in vivo, mouse. The note with it: 12.5mg/kg tail vein injection, every week. The procedure: All animal studies were carried out under protocols approved by The Ohio State University Institutional Animal Care and Use Committee (IACUC). Previously, 1 × 10^6 splenocytes from Eµ-MTCP1 mice, which recently were described to mimic human CLL, were resuspended in PBS and injected via tail vein into male C57BL/6 J from The Jackson Laboratory. Mice were monitored for development of peripheral disease by flow cytometry, measuring the percentage of CD5^+/CD19^+ cells in peripheral blood. Complete in vivo methods may be found in the supplementary material.
In vitro systems generally lack the full microenvironment that can lead to tumor cell resistance and survival. Next, we sought to assess the in vivo efficacy of VIP152 to better evaluate its potential clinical utility in patients with CLL. To accomplish this we used a novel transgenic model of CLL (Eµ-MTCP1 model) developed recently by our group that is characterized by CD5^+/CD19^+ and B220^Dim expansion in the blood. Splenocytes from diseased Eµ-MTCP1 mice were serially engrafted via tail vein injection and monitored for leukemia via weekly flow cytometry (Fig. 5A). Mice were randomized to vehicle versus VIP152 at the time blood disease was evident and treated every week until endpoint. […] Mice in the VIP152 treatment group had improved overall survival compared with vehicle with a median survival of 46 days vs 32 days respectively (Fig. 5D – p < 0.005). Following enrollment two mice had reduction in disease that was sustained below 10% for the duration of study and these mice were censored after 100 days upon which treatment was ceased. Two months following treatment cessation these mice succumbed to likely illness with evident splenomegaly. […]
Transcriptase. cDNA was immediately taken for qPCR using TaqMan Fast Advanced Master Mix using […]
Upon reaching 80% disease, these mice were euthanized and spleens were harvested. Splenocytes from a single donor were then used for the studies described here. 1 x 10^6 splenocytes were again injected via tail vein into male C57BL/6J mice and monitored via flow cytometry as previously described for development of disease as defined by ≥10% CD45+/CD5+/CD19+32. Upon reaching 10% disease, mice were randomly enrolled into one of two treatment arms: tail vein injection of 12.5mg/kg VIP152 dissolved in (30/10/60 v/v/v PEG400/EtOH/0.5% Tween-80 in water) or vehicle control.
Flow Cytometry analysis of blood […]
Anti-Mouse CD45R/B220 – cat. […] Data were analyzed using Kaluza Analysis Software (Beckman-Coulter v2.1).
Mass spectra from all samples (N = 12) were converted to mzML with ProteoWizard and OpenMS (v 2.5.0)30,31. Features from converted files were detected with Biosaur and searched on the OpenMS platform with […]

For a further data set, the target named is RIPK1 (Homo sapiens, UniProt Q13546). The experiment in a line: KINOMEscan: RIPK1. Type of data set: binding. The note with it: 100 nM, read-out: Percent Control.
Chain of RIPK1 (Q13546 whole entry): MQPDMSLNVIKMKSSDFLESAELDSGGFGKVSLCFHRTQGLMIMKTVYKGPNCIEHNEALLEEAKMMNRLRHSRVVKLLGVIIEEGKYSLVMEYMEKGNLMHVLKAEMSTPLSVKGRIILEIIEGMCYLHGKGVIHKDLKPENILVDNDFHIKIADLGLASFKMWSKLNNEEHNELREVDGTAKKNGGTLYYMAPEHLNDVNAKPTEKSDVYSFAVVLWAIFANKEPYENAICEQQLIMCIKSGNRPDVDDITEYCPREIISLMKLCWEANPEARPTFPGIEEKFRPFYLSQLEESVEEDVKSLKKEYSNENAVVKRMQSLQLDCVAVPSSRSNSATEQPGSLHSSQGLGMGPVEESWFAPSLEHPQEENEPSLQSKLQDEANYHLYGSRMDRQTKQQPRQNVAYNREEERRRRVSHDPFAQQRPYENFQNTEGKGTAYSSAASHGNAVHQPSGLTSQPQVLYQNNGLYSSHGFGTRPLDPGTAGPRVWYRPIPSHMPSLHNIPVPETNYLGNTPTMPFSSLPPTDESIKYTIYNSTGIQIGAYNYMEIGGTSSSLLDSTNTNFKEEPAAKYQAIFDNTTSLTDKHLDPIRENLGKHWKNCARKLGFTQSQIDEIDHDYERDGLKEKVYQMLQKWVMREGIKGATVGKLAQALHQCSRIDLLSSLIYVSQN
For the next data set, the target named is MAP3K15 (Homo sapiens, UniProt Q6ZN16). In words: KINOMEscan: MAP3K15. Type of data set: binding. Particulars: 1000 nM, read-out: Percent Control.
In a further data set the target is MST3 (Homo sapiens, UniProt Q9Y6E0). The experiment in a line: KINOMEscan: MST3. The data set is classed as binding. Particulars: 1000 nM, read-out: Percent Control.

Like-named read-outs stand apart in the source and are kept apart here.

Chain of AKT2 (P31751 whole entry): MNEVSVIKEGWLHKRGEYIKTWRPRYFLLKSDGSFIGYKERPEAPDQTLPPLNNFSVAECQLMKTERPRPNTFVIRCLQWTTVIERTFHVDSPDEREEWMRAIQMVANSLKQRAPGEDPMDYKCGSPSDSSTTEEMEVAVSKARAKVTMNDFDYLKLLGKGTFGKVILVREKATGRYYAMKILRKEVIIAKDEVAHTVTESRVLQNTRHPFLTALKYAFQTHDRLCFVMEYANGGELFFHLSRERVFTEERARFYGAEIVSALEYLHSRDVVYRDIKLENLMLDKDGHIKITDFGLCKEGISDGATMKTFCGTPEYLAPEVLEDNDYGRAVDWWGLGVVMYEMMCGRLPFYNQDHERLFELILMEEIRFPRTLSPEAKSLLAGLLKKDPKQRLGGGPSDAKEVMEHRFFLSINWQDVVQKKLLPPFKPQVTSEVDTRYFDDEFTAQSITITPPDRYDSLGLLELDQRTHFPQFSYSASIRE
Chain of EGFR(L747-S752del, P753S) (P00533 with tags, fused parts or gaps DEL747-752/P753S limits assumed): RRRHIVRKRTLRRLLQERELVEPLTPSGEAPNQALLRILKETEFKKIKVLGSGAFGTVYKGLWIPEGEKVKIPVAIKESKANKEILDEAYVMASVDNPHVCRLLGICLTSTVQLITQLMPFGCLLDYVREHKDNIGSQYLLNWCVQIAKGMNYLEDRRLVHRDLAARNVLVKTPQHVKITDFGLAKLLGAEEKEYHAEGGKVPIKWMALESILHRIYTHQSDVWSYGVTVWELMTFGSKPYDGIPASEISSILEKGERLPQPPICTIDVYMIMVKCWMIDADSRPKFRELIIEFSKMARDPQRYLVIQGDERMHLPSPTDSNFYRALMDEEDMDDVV
Chain of TLK2 (Q86UE8 whole entry): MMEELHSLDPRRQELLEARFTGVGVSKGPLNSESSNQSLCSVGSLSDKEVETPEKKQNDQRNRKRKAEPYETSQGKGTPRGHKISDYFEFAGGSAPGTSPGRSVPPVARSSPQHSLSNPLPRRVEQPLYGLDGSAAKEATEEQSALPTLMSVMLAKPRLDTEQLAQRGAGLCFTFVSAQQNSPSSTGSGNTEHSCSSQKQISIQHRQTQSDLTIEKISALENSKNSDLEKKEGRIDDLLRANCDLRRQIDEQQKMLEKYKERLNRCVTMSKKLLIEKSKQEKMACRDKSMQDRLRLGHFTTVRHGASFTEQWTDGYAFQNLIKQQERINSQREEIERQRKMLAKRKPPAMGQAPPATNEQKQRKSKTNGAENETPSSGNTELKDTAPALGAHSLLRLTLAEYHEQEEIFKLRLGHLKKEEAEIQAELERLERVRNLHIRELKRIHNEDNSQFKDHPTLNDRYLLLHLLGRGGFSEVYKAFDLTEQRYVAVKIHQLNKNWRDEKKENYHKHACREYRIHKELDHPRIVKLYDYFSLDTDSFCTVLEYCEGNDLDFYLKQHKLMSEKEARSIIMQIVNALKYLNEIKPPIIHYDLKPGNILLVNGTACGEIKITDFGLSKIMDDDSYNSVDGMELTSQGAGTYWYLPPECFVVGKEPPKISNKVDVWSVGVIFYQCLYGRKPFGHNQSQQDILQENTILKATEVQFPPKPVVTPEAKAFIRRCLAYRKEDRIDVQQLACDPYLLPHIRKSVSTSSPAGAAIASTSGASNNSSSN
Chain of JNK1 (P45983 whole entry): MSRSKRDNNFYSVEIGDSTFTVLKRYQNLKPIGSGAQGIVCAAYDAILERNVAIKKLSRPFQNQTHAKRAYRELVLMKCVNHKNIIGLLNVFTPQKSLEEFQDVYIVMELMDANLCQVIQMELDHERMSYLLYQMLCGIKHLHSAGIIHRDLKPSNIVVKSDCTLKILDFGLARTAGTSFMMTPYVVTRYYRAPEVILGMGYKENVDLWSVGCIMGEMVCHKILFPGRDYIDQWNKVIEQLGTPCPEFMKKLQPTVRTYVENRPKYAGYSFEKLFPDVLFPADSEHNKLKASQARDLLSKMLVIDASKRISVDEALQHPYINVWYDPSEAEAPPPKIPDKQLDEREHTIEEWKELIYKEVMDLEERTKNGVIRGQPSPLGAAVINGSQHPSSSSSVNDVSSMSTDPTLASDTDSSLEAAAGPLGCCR

Consider `COc1cc(F)ccc1-c1cc(Nc2cc(CS(C)(=N)=O)ccn2)ncc1F` (stereo not drawn) [VIP152], for which the remaining binding at 1 µM on AKT2 is 100%; on INSR, 97%; in data set [1], 94%; at BRAF(V600E), 92%; at ICK, 9%; at CSNK1G1 it was 91%. The remaining binding at 1 µM on MAP4K5 amounted to 41%; on JNK1, 82%; on MAP3K15, 93%; on MST3, 94%. Further, the Cmax in [2] is 836 ng/mL; in data set [2] (read-out: Cmax, corresponding concentration), 2000 nM. Further, the remaining binding at 0.1 µM on TRKC is 83%; in [3] it was 100%; on TLK2, 100%; on YSK4, 100%; at RIPK1 it was 100%. Further, the weight loss entry in data set [4] was “did not observe any weight loss”. This compound also showed a median survival in [4] (vehicle 32 days) of 46 days. The “CD5+/CD19+ disease burden in peripheral blood” value in data set [4] (vs vehicle) was “statistically significantly lower”. For the same compound, the “spleen size and spleen disease burden at endpoint” value in [4] (vs vehicle) is listed as “did not have significantly smaller spleens nor significant decrease in spleen disease burden”.
